Legend:
BMX = target: T1, BMX (Homo sapiens, UniProt P51813); assay: Radiometric kinase assay (Reaction Biology HotSpot); assay type: biochemical; details: radiometric HotSpot, five-dose singlicate, [ATP] = 10 μM
T1 construct: purchased Reaction Biology Corporation
T1 sequence (P51813 1-675): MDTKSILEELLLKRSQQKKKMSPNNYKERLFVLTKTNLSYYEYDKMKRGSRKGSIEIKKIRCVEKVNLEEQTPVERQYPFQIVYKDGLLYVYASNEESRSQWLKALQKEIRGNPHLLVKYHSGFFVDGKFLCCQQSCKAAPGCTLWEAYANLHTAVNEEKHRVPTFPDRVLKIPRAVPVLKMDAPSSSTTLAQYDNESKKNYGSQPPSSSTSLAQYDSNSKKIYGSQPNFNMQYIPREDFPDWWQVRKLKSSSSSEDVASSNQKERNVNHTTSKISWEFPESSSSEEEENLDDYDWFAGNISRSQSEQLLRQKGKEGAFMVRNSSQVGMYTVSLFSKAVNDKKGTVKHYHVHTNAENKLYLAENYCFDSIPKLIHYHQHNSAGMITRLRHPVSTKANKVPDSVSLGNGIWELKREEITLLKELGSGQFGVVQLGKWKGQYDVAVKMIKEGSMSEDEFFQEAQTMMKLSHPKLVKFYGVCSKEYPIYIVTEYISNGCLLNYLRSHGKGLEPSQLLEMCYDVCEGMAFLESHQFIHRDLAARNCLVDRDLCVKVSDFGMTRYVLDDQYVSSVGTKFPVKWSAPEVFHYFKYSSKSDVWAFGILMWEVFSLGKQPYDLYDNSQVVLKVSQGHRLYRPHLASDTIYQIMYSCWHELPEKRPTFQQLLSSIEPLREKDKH
Experimental: (§1) If not mentioned differently, in vitro profiling of compounds was performed at Reaction Biology Corporation using the HotSpot™ assay platform.

TXK = target: T2, TXK (Homo sapiens, UniProt P42681); assay: as above; assay type: biochemical; details: radiometric HotSpot, five-dose singlicate, [ATP] = 10 μM
T2 construct: purchased Reaction Biology Corporation
T2 sequence (P42681 1-527): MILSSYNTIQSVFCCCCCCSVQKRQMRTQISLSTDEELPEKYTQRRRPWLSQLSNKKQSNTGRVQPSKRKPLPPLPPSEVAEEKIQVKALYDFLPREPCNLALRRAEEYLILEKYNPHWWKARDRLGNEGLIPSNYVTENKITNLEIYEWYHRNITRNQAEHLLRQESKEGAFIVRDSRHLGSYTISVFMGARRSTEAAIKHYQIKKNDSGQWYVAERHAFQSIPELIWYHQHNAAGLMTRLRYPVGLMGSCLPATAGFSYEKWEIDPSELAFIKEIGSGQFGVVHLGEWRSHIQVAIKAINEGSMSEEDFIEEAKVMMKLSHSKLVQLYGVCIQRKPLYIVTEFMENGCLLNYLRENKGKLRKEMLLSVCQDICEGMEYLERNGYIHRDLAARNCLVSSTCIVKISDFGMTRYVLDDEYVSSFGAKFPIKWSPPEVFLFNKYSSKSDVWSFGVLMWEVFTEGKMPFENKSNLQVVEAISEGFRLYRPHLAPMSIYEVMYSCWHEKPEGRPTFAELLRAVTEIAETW
Experimental: as §1

[1] = target: T3, Full length BMX (C-terminal NanoLuc fusion) (Homo sapiens, UniProt P51813); assay: Cellular NanoBRET target engagement assay in HEK293T cells; assay type: cell-based; details: 0.5 µM Tracer K4, 2 h incubation
T3 construct: Full length BMX and BTK was cloned into pFC32K; expressed in transfected cells; host or cells: HEK293T
T3 sequence (P51813 1-675): T1 sequence (P51813 1-675)
Experimental: (§2) Full length BMX and BTK was cloned into pFC32K (Promega, Madison, WI, USA) for expression of a C-terminal NanoLuc fusion. The plasmids were transfected into HEK293T cells cultured in DMEM (Gibco, Waltham, MA, USA) supplemented with 10% fetal bovine serum (Gibco, Waltham, MA, USA) and Penicillin/Streptamycin (Gibco, Waltham, MA, USA). NanoBRET assays were performed using the protocol published previously. Briefly, after transfection and 20 h incubation cells were harvested and subsequently resuspended in OptiMEM (Gibco, Waltham, MA, USA). Cells were aliquoted onto […] (Greiner, Kremsmünster, Austria), and inhibitors as well as 0.5 µM Tracer K4 (Promega) for BMX or 0.5 µM Tracer K5 (Promega, Madison, WI, USA) for BTK were added using an ECHO acoustic dispenser. The plates were incubated at 37 °C with 5% CO2 for 2 h prior to the addition of both NanoBRET NanoGlo substrate (Promega, Madison, WI, USA) and extracellular NanoLuc inhibitor. BRET luminescence (450 nm for donor emission and 610 nm for BRET signal) was measured using PHERAstar FSX plate reader (BMG Labtech, Ortenberg, Germany). Milli-BRET units (mBU) were calculated as a ratio between BRET signal and the overall measured luminescence. A dose–response fitting was applied and IC50 values were calculated using the Prism software. […] Experiments were performed as tripicates and repeated at least three times.

[2] = target: T4, Full length BTK (C-terminal NanoLuc fusion) (Homo sapiens, UniProt Q06187); assay: as above; assay type: cell-based; details: 0.5 µM Tracer K5, 2 h incubation
T4 construct: Full length BMX and BTK was cloned into pFC32K; expressed in transfected cells; host or cells: HEK293T
T4 sequence (Q06187 whole entry, the tested form may be a part): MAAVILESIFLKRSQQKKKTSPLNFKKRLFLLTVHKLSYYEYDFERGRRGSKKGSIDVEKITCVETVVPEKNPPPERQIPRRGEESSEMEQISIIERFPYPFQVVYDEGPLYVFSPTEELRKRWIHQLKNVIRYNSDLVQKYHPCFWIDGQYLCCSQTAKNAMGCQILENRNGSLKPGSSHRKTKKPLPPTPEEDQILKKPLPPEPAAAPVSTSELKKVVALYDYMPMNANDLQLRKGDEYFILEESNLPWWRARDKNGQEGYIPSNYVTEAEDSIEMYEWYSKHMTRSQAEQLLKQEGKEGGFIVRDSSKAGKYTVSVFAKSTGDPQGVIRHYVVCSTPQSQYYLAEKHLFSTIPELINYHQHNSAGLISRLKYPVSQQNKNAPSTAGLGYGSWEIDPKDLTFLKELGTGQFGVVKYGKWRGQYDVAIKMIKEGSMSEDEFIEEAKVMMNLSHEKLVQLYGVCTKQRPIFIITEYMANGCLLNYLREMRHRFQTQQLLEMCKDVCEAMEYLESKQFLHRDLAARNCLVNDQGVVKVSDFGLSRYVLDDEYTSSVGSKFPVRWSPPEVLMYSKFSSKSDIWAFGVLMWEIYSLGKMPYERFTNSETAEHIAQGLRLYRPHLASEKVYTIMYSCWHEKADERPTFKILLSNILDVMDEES
Experimental: as §2

kinase domain of BMX [3] = target: T5, kinase domain of BMX (Homo sapiens, UniProt P51813); assay: Mass spectrometric investigation of covalent binding to BMX (ESI-TOF); details: 4 °C; for covalent labeling of BMX (in words): 1.5-fold molar excess, complete labeling refers to 30 min
T5 construct: The kinase domains of JAK3 and BMX at 2 μM
Experimental: The kinase domain of BMX was diluted to 0.05 mM with buffer containing 20 mM Tris pH 8.0, 200 mM NaCl, 0.5 mM TCEP (pH 7.0) and was subsequently mixed with 0.075 mM inhibitors (ratio of protein to inhibitor of 1:1.5). The mixture was incubated at 4°C. The samples were taken at different time points, the reaction stopped by diluting the sample with a 200-fold excess of 1% formic acid. The denatured protein and the adducts were assessed using electrospray time-of-flight (ESI-TOF) mass spectrometry.

JAK3 = target: T6, JAK3 (Homo sapiens, UniProt P52333); assay: Radiometric kinase assay (Reaction Biology HotSpot); assay type: biochemical; details: radiometric HotSpot, five-dose singlicate, [ATP] = 10 μM
T6 construct: purchased Reaction Biology Corporation
T6 sequence (P52333 1-1124): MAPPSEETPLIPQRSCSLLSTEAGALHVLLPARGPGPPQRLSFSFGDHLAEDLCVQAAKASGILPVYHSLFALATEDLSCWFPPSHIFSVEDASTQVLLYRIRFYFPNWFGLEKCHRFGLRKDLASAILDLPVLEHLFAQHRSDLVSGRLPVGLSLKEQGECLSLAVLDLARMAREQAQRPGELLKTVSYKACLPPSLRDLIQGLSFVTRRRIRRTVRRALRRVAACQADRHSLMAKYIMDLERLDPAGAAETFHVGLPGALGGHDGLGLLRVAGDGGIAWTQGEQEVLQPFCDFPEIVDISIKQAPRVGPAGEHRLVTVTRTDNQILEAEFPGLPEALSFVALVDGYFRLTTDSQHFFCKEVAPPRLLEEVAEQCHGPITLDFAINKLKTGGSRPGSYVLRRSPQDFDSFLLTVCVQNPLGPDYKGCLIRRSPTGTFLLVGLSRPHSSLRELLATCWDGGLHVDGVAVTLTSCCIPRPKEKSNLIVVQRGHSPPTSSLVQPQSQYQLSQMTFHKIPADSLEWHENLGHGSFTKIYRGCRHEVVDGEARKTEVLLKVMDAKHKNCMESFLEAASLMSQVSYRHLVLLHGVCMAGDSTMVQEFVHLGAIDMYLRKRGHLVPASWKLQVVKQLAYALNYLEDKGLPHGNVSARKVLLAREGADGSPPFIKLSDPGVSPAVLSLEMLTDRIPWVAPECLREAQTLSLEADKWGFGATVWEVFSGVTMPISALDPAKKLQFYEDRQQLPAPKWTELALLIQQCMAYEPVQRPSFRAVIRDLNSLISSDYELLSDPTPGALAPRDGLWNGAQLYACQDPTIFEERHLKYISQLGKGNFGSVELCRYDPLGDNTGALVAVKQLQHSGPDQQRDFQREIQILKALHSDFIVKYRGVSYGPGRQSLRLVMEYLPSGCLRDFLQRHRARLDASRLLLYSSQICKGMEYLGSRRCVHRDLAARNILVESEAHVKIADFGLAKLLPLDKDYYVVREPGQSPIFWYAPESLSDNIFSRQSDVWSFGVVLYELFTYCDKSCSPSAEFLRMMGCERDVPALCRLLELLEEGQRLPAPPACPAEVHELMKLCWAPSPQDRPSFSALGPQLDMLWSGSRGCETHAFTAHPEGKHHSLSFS
Experimental: as §1

kinase domain of BMX [4] = target: T5, kinase domain of BMX; assay: Thermal shift (ΔTm) assay; assay type: binding; details: 2 μM kinase domain, 10 μM inhibitor; mean ± SD of at least three measurements
Experimental: (§3) The kinase domains of JAK3 and BMX at 2 μM were mixed with the inhibitors at 10 μM, and subsequently SyPRO orange dye (Invitrogen Carlsbad, CA, USA) was added. The thermal shift assay and data evaluation were performed as described previously using a Real-Time PCR Mx3005p machine (Stratagene, La Jolla, CA, USA).

kinase domain of JAK3 = target: T7, kinase domain of JAK3 (Homo sapiens, UniProt P52333); assay: Thermal shift (ΔTm) assay; assay type: binding; details: 2 μM kinase domain, 10 μM inhibitor; mean ± SD of at least three measurements
T7 construct: The kinase domains of JAK3 and BMX at 2 μM; made in house
Experimental: as §3

[5] = 1.5-fold molar excess of inhibitor, 30 min
[6] = 1.5-fold molar excess of inhibitor, 60 min
[7] = 1.5-fold molar excess of inhibitor, 120 min
[8] = 1.5-fold molar excess of inhibitor, 240 min

Structure (SMILES) | IC50 (BMX) [nM] | IC50 (TXK) [nM] | IC50 [1] [nM] | IC50 [2] [nM] | native (unmodified) BMX fraction, 30 min (kinase domain of BMX [3]; [5]) [%] | native (unmodified) BMX fraction, 60 min (kinase domain of BMX [3]; [6]) [%] | native (unmodified) BMX fraction, 120 min (kinase domain of BMX [3]; [7]) [%] | native (unmodified) BMX fraction, 240 min (kinase domain of BMX [3]; [8]) [%] | covalent labeling of BMX (in words) (kinase domain of BMX [3]) | IC50 (JAK3) [nM] | ΔTm at 10 µM (kinase domain of BMX [4]) [°C] | ΔTm at 10 µM (kinase domain of JAK3) [°C] | BMX covalent adduct fraction, 30 min (kinase domain of BMX [3]; [5]) [%] | BMX covalent adduct fraction, 60 min (kinase domain of BMX [3]; [6]) [%] | BMX covalent adduct fraction, 120 min (kinase domain of BMX [3]; [7]) [%] | BMX covalent adduct fraction, 240 min (kinase domain of BMX [3]; [8]) [%]
CCC(=O)Nc1cccc(-c2c[nH]c3ncc(C(=O)NC4CCCC4)cc23)c1 [Compound 11b, N-cyclopentyl-3-(3-propionamidophenyl)-1H-pyrrolo[2,3-b]pyridine-5-carboxamide] | > 10000 | > 10000 | > 10000 | 3710 ± 1200 | 100 | 100 | 100 | 100 | no modification was detectable | – | – | – | – | – | – | –
C=CC(=O)Nc1cccc(-c2c[nH]c3ncc(NC(=O)CC4CCCC4)cc23)c1 [Compound 12g, N-(3-(5-(2-cyclopentylacetamido)-1H-pyrrolo[2,3-b]pyridin-3-yl)phenyl)acrylamide] | 6 | – | 3 ± 1 | 13 ± 2 | – | – | 1 | – | complete labeling | > 10000 | 11.88 ± 0.07 | 11.9 ± 0.23 | 100 | 100 | 99 | 100
